Experimental data from patent publication US20250228851A1, “ALLOSTERIC INHIBITOR COMPOUNDS FOR OVERCOMING CANCER RESISTANCE” (priority 2021, published 2025).

What was measured:
[1] = test system: PINCO transfected Ba/F3 cells; assay: XTT cell viability, Ba/F3 transduced with empty vector (PINCO); format: cell-based, murine; settings: increasing concentration up to 10 μM
Procedure: • 1. Ba/F3 cells were obtained from the German Collection of Microorganisms and Cell Cultures (DSMZ, Braunschweig, Germany) and maintained in RPMI 1640 medium supplemented with 10% fetal calf serum (Invitrogen) containing 10 ng/ml of interleukin-3 (Cell Concepts, Umkirch, Germany). Ecotropic Phoenix cells and Rat-1 cells were cultured in Dulbecco's modified Eagle's medium supplemented with 10% fetal calf serum. GNF-2 (Sigma-Adrich, Steinheim, Germany) was dissolved in dimethyl sulfoxide and added at a final concentration of […]. Cell growth was assessed by dye exclusion using Trypan blue. Proliferation was assessed using the XTT proliferation kit (Roche, Mannheim, Germany), according to the manufacturer's instructions. • 2. Ba/F3: IL-3 dependent lymphatic murine pro B cell line. Ba/F3 cells expressing either p185-BCR-ABL1 (p185-BCR-ABL-Ba/F3) or p210-BCR-ABL (p210-BCR-ABL-Ba/F3). p185-BCR-ABL1 (activated kinases substitute for the IL-3 signaling and therefore render the cells IL3 independent. Ba/F3 cells expressing either p185-BCR-ABL (p185-Ba/F3) or p210-BCR-ABL (p210-Ba/F3). Ba/F3 cells obtained from the German Collection of Microorganisms and Cell Cultures (DSMZ, Braunschweig, Germany). • 3. Mutant transduced Ba/F3 cells (T315I-p185-BCR-ABL1 or T315I-p210-BCR-ABL1): Ba/F3 cells expressing either the mutated forms T315I-p185-BCR-ABL1 or T315I-p210-BCR-ABL1. • 4. WT-Sup-B15: A Ph+ ALL cell line harboring the p185-BCR-ABL. Sup-B15: established from the bone marrow of a child with acute lymphoblastic leukemia (B cell precursor ALL) in second relapse in 1984; described in the literature to carry the ALL-variant (m-BCR) of the BCR-ABL1 fusion gene (e1-a2) correct, because it results in the p185-BCR-ABL version. • 5. […]
FIG. 11: Antiproliferative effect of Compound 16 on PINCO transfected Ba/F3 cells. […] Proliferation status was determined by the metabolic activity of cells given by the reduction rate of XTT to formazan. […]

[2] = test system: Ba/F3 cells expressing T315I-p185-BCR-ABL; assay: XTT cell viability / proliferation, Ba/F3 expressing T315I-p185-BCR-ABL; format: cell-based, murine
Procedure: • 1. Ba/F3 cells were obtained from the German Collection of Microorganisms and Cell Cultures (DSMZ, Braunschweig, Germany) and maintained in RPMI 1640 medium supplemented with 10% fetal calf serum (Invitrogen) containing 10 ng/ml of interleukin-3 (Cell Concepts, Umkirch, Germany). Ecotropic Phoenix cells and Rat-1 cells were cultured in Dulbecco's modified Eagle's medium supplemented with 10% fetal calf serum. GNF-2 (Sigma-Adrich, Steinheim, Germany) was dissolved in dimethyl sulfoxide and added at a final concentration of […]. Cell growth was assessed by dye exclusion using Trypan blue. Proliferation was assessed using the XTT proliferation kit (Roche, Mannheim, Germany), according to the manufacturer's instructions. • 2. Ba/F3: IL-3 dependent lymphatic murine pro B cell line. Ba/F3 cells expressing either p185-BCR-ABL1 (p185-BCR-ABL-Ba/F3) or p210-BCR-ABL (p210-BCR-ABL-Ba/F3). p185-BCR-ABL1 (activated kinases substitute for the IL-3 signaling and therefore render the cells IL3 independent. Ba/F3 cells expressing either p185-BCR-ABL (p185-Ba/F3) or p210-BCR-ABL (p210-Ba/F3). Ba/F3 cells obtained from the German Collection of Microorganisms and Cell Cultures (DSMZ, Braunschweig, Germany). • 3. Mutant transduced Ba/F3 cells (T315I-p185-BCR-ABL1 or T315I-p210-BCR-ABL1): Ba/F3 cells expressing either the mutated forms T315I-p185-BCR-ABL1 or T315I-p210-BCR-ABL1. • 4. WT-Sup-B15: A Ph+ ALL cell line harboring the p185-BCR-ABL. Sup-B15: established from the bone marrow of a child with acute lymphoblastic leukemia (B cell precursor ALL) in second relapse in 1984; described in the literature to carry the ALL-variant (m-BCR) of the BCR-ABL1 fusion gene (e1-a2) correct, because it results in the p185-BCR-ABL version. • 5. […] V617FJAK2 HEL: (Human erythroleukemia) is a growth factor independent erythroleukemic cell line established from the bone marrow of a patient with relapsed Hodgkin disease after autologous bone marrow transplantation (Martin P & Papayannopoulou T: Science 1982; 216:1233-1235). HEL cells display a block in differentiation at the level of common erythroid-megakaryocytic progenitor and have been commonly used as a model to study erythroid and megakaryocytic differentiation. • 7. Jurkat: an immortalized human T lymphocyte first derived from the peripheral blood of a child suffering from T cell leukemia. Jurkat cells are used to study acute T cell leukemia, T cell signaling, and the expression of various chemokine receptors susceptible to viral entry, particularly HIV.
FIGS. 1A and 1B: Effects of Compound 16 on Ba/F3 cells expressing either p185-BCR-ABL or T315I-p185-BCR-ABL. Cells were exposed to increasing concentration of Compound 16 [empty vehicle (0.0 μM+IL3), 2.5, 5.0 and 10.0 μM]. […] Cell viability (CV) was assessed using the XTT method as described in the experimental part. The means±SD of triplicates from one representative experiment out of three performed are given.
FIGS. 7A-C: Effects of Compound 16 on of Ba/F3 cells expressing WT-p185-BCR-ABL (FIG. 7A) and the mutant gatekeeper T315I-p185-BCR-ABL (FIG. 7B) by Compound 16. Cells were exposed to increasing concentrations of Compound 16.

KÖ (Ph+T315I-BCR-ABL) = assay: Proliferation by dye exclusion after three days, KÖ; format: cell-based, human; settings: KÖ, 2.5, 5 and 10 μM
Procedure: FIG. 3. […] Cells were exposed to increasing concentration of 2.5, 5 and 10 μM of Compound 16. The negative control cell lines Ph− ALL HP was irresponsive to increasing concentration of Compound 16 (up to 10 μM). […] All four cell lines were plated in duplicates at the indicated concentrations, and proliferation was assessed after three days by dye exclusion of viable cells. […] The sensitivity of Ph+ cells to Compound 16 underlines the involvement of BCR-ABL in the antiproliferative mechanism. Death induction of BV173 cells is well taken as an indication of the ability of such group of compounds to overcome resistance that is originated in non-mutational grounds. However, the ability overcome the resistant T315I-BCR-ABL mutant, as shown in the dose-dependent manner of KÖ (circles), might be indicative for a non-ATP competitive mechanism of action.

COc1ccc(C(=O)N2CCN(c3cc(Nc4ccc(OC(F)(F)F)cc4)ncn3)CC2)cc1OC [Compound 16]
antiproliferative response (in words) [1]: No effect
RF (T315I-p185 versus p185-Ba/F3) ([2]; 1 μM, 48 hr): 1.07
cells inhibited ([2]; 1 μM, within the first 24 hours): not affected
resistance conferred by T315I mutant versus p185-Ba/F3 ([2]; 2 μM, T=48 hr): 1.84 fold
viable cells ([2]; 2 μM, T=48 hr): 50.71%
time to complete inhibition ([2]; 10 μM): ~96 h
cell proliferation affected ([2]; 5 and 10 μM): ~80%
response (in words) (KÖ (Ph+T315I-BCR-ABL)): inhibited with variable degrees
